The values below come from patent US9809623B2, “α4β7 peptide monomer and dimer antagonists” (Protagonist Therapeutics, Inc., priority 2014, dated 2017).

Where two headings read alike, the source gives them in different places. Numbered stars: 1 amine (or outer) side, 2 acyl side, 3 side chain; on linkers, the order of the positions; unused ones are H or OH. Bridge positions count the residues as written; N and C are the ends. Square brackets hold non-standard residues; d marks the D form. Peptide text beside a SMILES is read from it. I, II: the chains in the order shown. Phe(4-COOH) = N[C@@H](Cc1ccc(C(=O)O)cc1)C(=O)O; Phe(4-tBu) = CC(C)(C)c1ccc(C[C@H](N)C(=O)O)cc1; 1Nal = N[C@@H](Cc1cccc2ccccc12)C(=O)O; Diglycolyl = O=C(COCC(=O)[*:2])[*:1]; NMeR = CN[C@@H](CCCNC(=N)N)C(=O)O; β3hE = N[C@@H](CCC(=O)O)CC(=O)O; NMeK = CN[C@@H](CCCCN)C(=O)O; Pen = CC(C)(S)[C@H](N)C(=O)O Where only a bound is given, the exact number is not on record here.

Series [1] deals with T1, rh integrin α4β7 (Homo sapiens, UniProt P13612+P26010).
T1 construct: purchased R&D Systems 5397-A30
The series can be described thus: α4β7-MAdCAM Competition ELISA. The format is binding. Summed up: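 Recombinant human α4β7 was captured on nickel plates at 800 ng/well. Peptide in 3-fold serial dilution (final top 10 μM) competed with MAdCAM-1 (final 10 nM) for 1 h at room temperature in 50 mM Tris pH 7.6, 150 mM NaCl, 1 mM MnCl2 or MgCl2. Bound MAdCAM-1 was detected with anti-human IgG1-HRP/TMB at A450.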

Series [2] addresses α4β7 (Homo sapiens, UniProt P13612+P26010). The series can be described thus: PBMC Memory T Cell Adhesion Assay, adhesion to MAdCAM-1. It is filed as cell-based. The essentials: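 Fresh human CD4+/CD45RO+ memory T cells in binding medium with 1 mM MnCl2 were preincubated with compound for 1.5 h at 37° C. on plates coated with Fc-captured MAdCAM-1 (400 ng/well). Adherent cells were read by fluorescence (Ex 485/Em 530). IC50 came from four-parameter nonlinear regression of RFU versus log concentration.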

Series [3] is described as follows: Dithiothreitol (DTT) Redox Stability Assay. The format is physicochemical. As to conditions: Table 4-C, t1/2, 0.5 mM DTT. The method, then:
For each peptide tested, the DTT stability assay was conducted by adding 5 μl of a 10 mM peptide stock solution in DMSO to 1 ml of 100 mM Tris-Cl, pH 7.5 (final peptide concentration is 50 μM). At time 0 min, 5 ul of a freshly thawed 100 mM DTT solution was added to the incubation tube containing the peptide, such that the final DTT concentration was 0.5 mM. The reactions were incubated at room temperature. At different time points up to 120 minutes (20 min, 40 min, 80 min, 120 min), 50 ul aliquots were removed, and the reaction was quenched by adding 10 μl of 5M acetic acid. To measure disappearance of the parent peptide, the quenched samples (30 μl) were analyzed by reverse phase HPLC and UV absorbance at 220 nm. The fraction oxidized remaining was graphed versus time, and half-lives were calculated by fitting to a first-order exponential decay equation using Excel.

[4] abbreviates: Table 3-B, Potency (α4β7), range classes, read-out: α4β7 ELISA IC50.
[5] abbreviates: Table 3-B, range classes, read-out: PBMC IC50.
Where [6] appears, read: Table 4-B, read-out: ELISA α4β7 IC50.

α4β7, sequence (P13612 34-1032): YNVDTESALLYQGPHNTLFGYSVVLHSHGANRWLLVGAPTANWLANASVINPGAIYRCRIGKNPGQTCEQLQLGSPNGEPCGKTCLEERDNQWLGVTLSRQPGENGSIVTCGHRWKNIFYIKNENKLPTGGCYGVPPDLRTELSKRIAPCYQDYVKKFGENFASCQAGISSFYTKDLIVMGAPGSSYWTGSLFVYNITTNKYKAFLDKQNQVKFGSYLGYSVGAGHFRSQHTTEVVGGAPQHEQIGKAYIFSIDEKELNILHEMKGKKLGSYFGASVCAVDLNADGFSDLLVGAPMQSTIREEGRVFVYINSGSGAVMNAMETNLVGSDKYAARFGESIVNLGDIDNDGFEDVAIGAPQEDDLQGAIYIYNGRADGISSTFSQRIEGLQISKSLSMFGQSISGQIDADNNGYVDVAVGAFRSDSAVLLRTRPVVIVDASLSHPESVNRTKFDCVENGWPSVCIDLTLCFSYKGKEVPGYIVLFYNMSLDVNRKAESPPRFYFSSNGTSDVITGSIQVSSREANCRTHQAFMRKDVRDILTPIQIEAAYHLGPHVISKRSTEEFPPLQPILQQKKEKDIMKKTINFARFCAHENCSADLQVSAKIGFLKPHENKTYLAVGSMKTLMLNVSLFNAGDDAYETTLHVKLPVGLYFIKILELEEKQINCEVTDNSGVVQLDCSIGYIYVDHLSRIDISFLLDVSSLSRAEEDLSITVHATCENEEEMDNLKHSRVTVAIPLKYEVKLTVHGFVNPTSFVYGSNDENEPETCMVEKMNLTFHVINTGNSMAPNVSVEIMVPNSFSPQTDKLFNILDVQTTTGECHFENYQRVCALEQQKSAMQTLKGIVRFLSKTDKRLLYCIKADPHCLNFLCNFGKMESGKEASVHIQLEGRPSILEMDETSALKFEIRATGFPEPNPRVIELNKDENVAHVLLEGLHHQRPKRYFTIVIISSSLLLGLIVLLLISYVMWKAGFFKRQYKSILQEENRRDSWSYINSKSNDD
α4β7, sequence (P26010 20-798): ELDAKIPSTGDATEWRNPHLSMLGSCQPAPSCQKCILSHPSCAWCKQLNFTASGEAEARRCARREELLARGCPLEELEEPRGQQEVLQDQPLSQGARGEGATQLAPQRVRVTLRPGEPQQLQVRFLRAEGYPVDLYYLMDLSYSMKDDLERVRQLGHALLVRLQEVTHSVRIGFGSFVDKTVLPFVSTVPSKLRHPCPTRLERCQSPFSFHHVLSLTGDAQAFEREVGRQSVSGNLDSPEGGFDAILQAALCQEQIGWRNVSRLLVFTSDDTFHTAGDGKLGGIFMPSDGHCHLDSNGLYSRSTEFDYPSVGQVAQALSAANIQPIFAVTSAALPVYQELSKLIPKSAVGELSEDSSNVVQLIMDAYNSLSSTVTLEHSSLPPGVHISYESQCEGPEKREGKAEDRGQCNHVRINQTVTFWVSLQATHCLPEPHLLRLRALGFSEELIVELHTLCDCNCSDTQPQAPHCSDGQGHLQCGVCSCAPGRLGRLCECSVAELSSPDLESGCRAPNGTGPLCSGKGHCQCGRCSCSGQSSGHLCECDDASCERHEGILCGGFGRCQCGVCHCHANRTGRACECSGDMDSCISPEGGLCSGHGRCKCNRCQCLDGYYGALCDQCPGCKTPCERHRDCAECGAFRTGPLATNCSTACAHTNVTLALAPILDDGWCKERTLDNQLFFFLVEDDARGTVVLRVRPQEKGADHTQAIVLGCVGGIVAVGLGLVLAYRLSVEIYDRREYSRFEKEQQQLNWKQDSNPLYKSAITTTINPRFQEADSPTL
T1 sequence (P13612 34-977 limits assumed): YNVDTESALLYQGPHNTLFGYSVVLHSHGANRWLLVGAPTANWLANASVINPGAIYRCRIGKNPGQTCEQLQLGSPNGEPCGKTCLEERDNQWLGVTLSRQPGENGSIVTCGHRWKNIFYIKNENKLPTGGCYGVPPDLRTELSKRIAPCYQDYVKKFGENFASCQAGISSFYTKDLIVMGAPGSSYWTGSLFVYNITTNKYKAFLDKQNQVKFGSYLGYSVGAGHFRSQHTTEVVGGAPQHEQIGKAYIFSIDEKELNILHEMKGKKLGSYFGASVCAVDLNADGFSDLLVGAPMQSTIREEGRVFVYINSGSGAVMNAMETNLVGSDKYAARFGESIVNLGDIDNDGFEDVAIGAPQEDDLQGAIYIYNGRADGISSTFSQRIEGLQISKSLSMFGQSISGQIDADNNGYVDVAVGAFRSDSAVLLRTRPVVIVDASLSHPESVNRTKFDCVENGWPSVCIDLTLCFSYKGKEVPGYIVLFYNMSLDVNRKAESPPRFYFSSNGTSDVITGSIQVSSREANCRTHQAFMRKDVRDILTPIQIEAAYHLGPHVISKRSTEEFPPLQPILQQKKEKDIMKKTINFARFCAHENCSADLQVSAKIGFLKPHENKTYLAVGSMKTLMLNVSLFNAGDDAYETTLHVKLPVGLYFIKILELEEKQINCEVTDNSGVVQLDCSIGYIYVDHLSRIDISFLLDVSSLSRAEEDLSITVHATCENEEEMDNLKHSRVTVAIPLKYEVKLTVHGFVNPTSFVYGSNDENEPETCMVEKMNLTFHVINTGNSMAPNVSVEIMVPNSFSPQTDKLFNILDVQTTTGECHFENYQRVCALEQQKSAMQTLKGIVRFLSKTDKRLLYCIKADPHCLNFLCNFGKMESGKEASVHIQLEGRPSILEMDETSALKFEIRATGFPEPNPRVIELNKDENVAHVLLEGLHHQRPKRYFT
T1 sequence (P26010 20-723 limits assumed): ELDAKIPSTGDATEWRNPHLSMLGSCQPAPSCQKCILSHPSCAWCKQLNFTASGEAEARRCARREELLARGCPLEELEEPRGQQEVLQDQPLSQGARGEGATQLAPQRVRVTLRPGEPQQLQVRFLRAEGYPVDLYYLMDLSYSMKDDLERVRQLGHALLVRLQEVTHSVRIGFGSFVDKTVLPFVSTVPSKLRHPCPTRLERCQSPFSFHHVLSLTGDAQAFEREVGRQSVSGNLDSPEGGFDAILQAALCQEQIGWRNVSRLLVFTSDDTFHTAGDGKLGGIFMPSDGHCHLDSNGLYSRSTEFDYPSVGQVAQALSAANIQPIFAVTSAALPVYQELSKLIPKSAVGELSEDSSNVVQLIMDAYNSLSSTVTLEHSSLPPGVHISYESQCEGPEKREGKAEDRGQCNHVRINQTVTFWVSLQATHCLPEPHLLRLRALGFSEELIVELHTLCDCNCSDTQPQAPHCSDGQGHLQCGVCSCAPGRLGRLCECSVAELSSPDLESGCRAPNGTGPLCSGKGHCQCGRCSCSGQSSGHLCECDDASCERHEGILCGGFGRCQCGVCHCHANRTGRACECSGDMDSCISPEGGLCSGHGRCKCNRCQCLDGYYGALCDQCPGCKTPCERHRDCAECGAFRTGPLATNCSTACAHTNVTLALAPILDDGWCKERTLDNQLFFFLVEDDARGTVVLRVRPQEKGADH

For `CC(=O)N[C@@H]1C(=O)N(C)[C@@H](CCCNC(=N)N)C(=O)N[C@@H](CO)C(=O)N[C@@H](CC(=O)O)C(=O)N[C@@H]([C@@H](C)O)C(=O)N[C@@H](CC(C)C)C(=O)N[C@H](C(=O)N[C@@H](Cc2ccc(C(=O)O)cc2)C(=O)N[C@@H](CCC(=O)O)CC(=O)N[C@H](CCCCNC(=O)COCC(=O)NCCCC[C@@H](NC(=O)C[C@H](CCC(=O)O)NC(=O)[C@H](Cc2ccc(C(=O)O)cc2)NC(=O)[C@H]2NC(=O)[C@H](CC(C)C)NC(=O)[C@H]([C@@H](C)O)NC(=O)[C@H](CC(=O)O)NC(=O)[C@H](CO)NC(=O)[C@H](CCCNC(=N)N)N(C)C(=O)[C@@H](NC(C)=O)C(C)(C)SSC2(C)C)C(N)=O)C(N)=O)C(C)(C)SSC1(C)C` [compound 130] (I: Ac-[Pen][NMeR]SDTL[Pen][Phe(4-COOH)][β3hE][dK]-NH2 / II: Ac-[Pen][NMeR]SDTL[Pen][Phe(4-COOH)][β3hE][dK]-NH2; disulfide I:1-I:7, II:1-II:7; linker I:10-II:10 via Diglycolyl), the 50% inhibitory concentration (IC50) in series [1] (setting [4]) and in series [2] (setting [5]) was less than 10 nM throughout.

Regarding `CC(=O)N[C@@H]1C(=O)N(C)[C@@H](CCCNC(=N)N)C(=O)N[C@@H](CO)C(=O)N[C@@H](CC(=O)O)C(=O)N[C@@H]([C@@H](C)O)C(=O)N[C@@H](CC(C)C)C(=O)N[C@H](C(=O)N[C@@H](Cc2ccc(C(C)(C)C)cc2)C(=O)N[C@@H](CCC(=O)O)CC(=O)N[C@H](CCCCNC(=O)COCC(=O)NCCCC[C@@H](NC(=O)C[C@H](CCC(=O)O)NC(=O)[C@H](Cc2ccc(C(C)(C)C)cc2)NC(=O)[C@H]2NC(=O)[C@H](CC(C)C)NC(=O)[C@H]([C@@H](C)O)NC(=O)[C@H](CC(=O)O)NC(=O)[C@H](CO)NC(=O)[C@H](CCCNC(=N)N)N(C)C(=O)[C@@H](NC(C)=O)C(C)(C)SSC2(C)C)C(N)=O)C(N)=O)C(C)(C)SSC1(C)C` [compound 132] (I: Ac-[Pen][NMeR]SDTL[Pen][Phe(4-tBu)][β3hE][dK]-NH2 / II: Ac-[Pen][NMeR]SDTL[Pen][Phe(4-tBu)][β3hE][dK]-NH2; disulfide I:1-I:7, II:1-II:7; linker I:10-II:10 via Diglycolyl), the 50% inhibitory concentration (IC50) in series [1] (setting [4]) and in series [2] (setting [5]) was less than 10 nM throughout.

Take `CC(=O)N[C@@H]1C(=O)N(C)[C@@H](CCCNC(=N)N)C(=O)N[C@@H](CO)C(=O)N[C@@H](CC(=O)O)C(=O)N[C@@H]([C@@H](C)O)C(=O)N[C@@H](CC(C)C)C(=O)N[C@H](C(=O)N[C@@H](Cc2cccc3ccccc23)C(=O)N[C@@H](CCC(=O)O)CC(=O)N(C)[C@@H](CCCCNC(=O)COCC(=O)NCCCC[C@@H](C(N)=O)N(C)C(=O)C[C@H](CCC(=O)O)NC(=O)[C@H](Cc2cccc3ccccc23)NC(=O)[C@H]2NC(=O)[C@H](CC(C)C)NC(=O)[C@H]([C@@H](C)O)NC(=O)[C@H](CC(=O)O)NC(=O)[C@H](CO)NC(=O)[C@H](CCCNC(=N)N)N(C)C(=O)[C@@H](NC(C)=O)C(C)(C)SSC2(C)C)C(N)=O)C(C)(C)SSC1(C)C` [compound 142] (I: Ac-[Pen][NMeR]SDTL[Pen][1Nal][β3hE][NMeK]-NH2 / II: Ac-[Pen][NMeR]SDTL[Pen][1Nal][β3hE][NMeK]-NH2; disulfide I:1-I:7, II:1-II:7; linker I:10-II:10 via Diglycolyl): the IC50 in series [1] (setting [4]) was less than 10 nM; in series [2] (setting [5]), 50 to 100 nM.

With `CC(=O)N[C@@H]1C(=O)N(C)[C@@H](CCCNC(=N)N)C(=O)N[C@@H](CO)C(=O)N[C@@H](CC(=O)O)C(=O)N[C@@H]([C@@H](C)O)C(=O)N[C@@H](CC(C)C)C(=O)N[C@H](C(=O)N[C@@H](Cc2ccc(C(=O)O)cc2)C(=O)N[C@@H](CCC(=O)O)C(=O)N(C)[C@@H](CCCCNC(=O)COCC(=O)NCCCC[C@@H](C(N)=O)N(C)C(=O)[C@H](CCC(=O)O)NC(=O)[C@H](Cc2ccc(C(=O)O)cc2)NC(=O)[C@H]2NC(=O)[C@H](CC(C)C)NC(=O)[C@H]([C@@H](C)O)NC(=O)[C@H](CC(=O)O)NC(=O)[C@H](CO)NC(=O)[C@H](CCCNC(=N)N)N(C)C(=O)[C@@H](NC(C)=O)C(C)(C)SSC2(C)C)C(N)=O)C(C)(C)SSC1(C)C` [compound 147] (I: Ac-[Pen][NMeR]SDTL[Pen][Phe(4-COOH)]E[NMeK]-NH2 / II: Ac-[Pen][NMeR]SDTL[Pen][Phe(4-COOH)]E[NMeK]-NH2; disulfide I:1-I:7, II:1-II:7; linker I:10-II:10 via Diglycolyl), the half-inhibitory concentration (IC50) in series [1] (setting [4]) and in series [2] (setting [5]) was less than 10 nM throughout.

Consider `CC(=O)N[C@@H]1C(=O)N(C)[C@@H](CCCNC(=N)N)C(=O)N[C@@H](CO)C(=O)N[C@@H](CC(=O)O)C(=O)N[C@@H]([C@@H](C)O)C(=O)N[C@@H](CC(C)C)C(=O)N[C@H](C(=O)N[C@@H](Cc2ccc(C(C)(C)C)cc2)C(=O)N[C@@H](CCC(=O)O)CC(=O)N(C)[C@@H](CCCCNC(=O)COCC(=O)NCCCC[C@@H](C(N)=O)N(C)C(=O)C[C@H](CCC(=O)O)NC(=O)[C@H](Cc2ccc(C(C)(C)C)cc2)NC(=O)[C@H]2NC(=O)[C@H](CC(C)C)NC(=O)[C@H]([C@@H](C)O)NC(=O)[C@H](CC(=O)O)NC(=O)[C@H](CO)NC(=O)[C@H](CCCNC(=N)N)N(C)C(=O)[C@@H](NC(C)=O)C(C)(C)SSC2(C)C)C(N)=O)C(C)(C)SSC1(C)C` [compound 149] (I: Ac-[Pen][NMeR]SDTL[Pen][Phe(4-tBu)][β3hE][NMeK]-NH2 / II: Ac-[Pen][NMeR]SDTL[Pen][Phe(4-tBu)][β3hE][NMeK]-NH2; disulfide I:1-I:7, II:1-II:7; linker I:10-II:10 via Diglycolyl), for which the IC50 in series [1] (setting [4]) and in series [2] (setting [5]) was less than 10 nM throughout.

For `CC(=O)N[C@@H]1C(=O)N(C)[C@@H](CCCNC(=N)N)C(=O)N[C@@H](CO)C(=O)N[C@@H](CC(=O)O)C(=O)N[C@@H]([C@@H](C)O)C(=O)N[C@@H](CC(C)C)C(=O)N[C@H](C(=O)N[C@@H](Cc2ccc(C(C)(C)C)cc2)C(=O)N[C@@H](CCC(=O)O)CC(=O)O)C(C)(C)SSC1(C)C` [compound 152] (Ac-[Pen][NMeR]SDTL[Pen][Phe(4-tBu)][β3hE]-OH; disulfide 1-7), the half-maximal inhibitory concentration (IC50) was less than 10 nM in series [1] (setting [4]) and 25 to 50 nM in series [2] (setting [5]).

Regarding `CC(=O)N[C@H]1CSSC[C@@H](C(=O)NCC(=O)N[C@@H](CCC(=O)O)C(N)=O)NC(=O)[C@H](CC(C)C)NC(=O)[C@H]([C@@H](C)O)NC(=O)[C@H](CC(=O)O)NC(=O)[C@H](CO)NC(=O)[C@H](CCCNC(=N)N)NC1=O` [compound 194, Ac-C-R-S-D-T-L-C-G-E-NH2] (Ac-CRSDTLCGE-NH2; disulfide 1-7), the “DTT Min” value in series [3] amounted to 5.5 min. For the same molecule, the 50% inhibitory concentration (IC50) in series [1] (setting [6]) amounted to 97 nM.

`CC(=O)N[C@H]1CSSC[C@@H](C(N)=O)NC(=O)[C@H](CC(C)C)NC(=O)[C@H]([C@@H](C)O)NC(=O)[C@H](CC(=O)O)NC(=O)[C@H](CO)NC(=O)[C@H](CCCNC(=N)N)NC1=O` [compound 195, Ac-C-R-S-D-T-L-C-NH2] (Ac-CRSDTLC-NH2; disulfide 1-7): the “DTT Min” value in series [3] was determined as 4.7 min. The IC50 in series [1] (setting [6]) worked out at 97 nM.

Turning to `CC(=O)N[C@H]1CSSC[C@@H](C(=O)NCC(=O)N[C@@H](CCC(=O)O)C(N)=O)NC(=O)[C@H](CC(C)C)NC(=O)[C@H]([C@@H](C)O)NC(=O)[C@H](CC(=O)O)NC(=O)[C@H](CO)NC(=O)[C@H](CCCNC(=N)N)N(C)C1=O` [compound 198, Ac-C-N-Me-R-S-D-T-L-C-G-E-NH2] (Ac-C[NMeR]SDTLCGE-NH2; disulfide 1-7), in series [3], the “DTT Min” value stood at 4.5 min. In addition, in series [1] (setting [6]), the 50% inhibitory concentration (IC50) came out at 20 nM.

For the molecule `CC(=O)N[C@H]1CSSC(C)(C)[C@@H](C(=O)N[C@H](CCCCN)C(N)=O)NC(=O)[C@H](CC(C)C)NC(=O)[C@H]([C@@H](C)O)NC(=O)[C@H](CC(=O)O)NC(=O)[C@H](CO)NC(=O)[C@H](CCCNC(=N)N)N(C)C1=O` [compound 202, Ac-C-N-Me-R-S-D-T-L-Pen-k-NH2] (Ac-C[NMeR]SDTL[Pen][dK]-NH2; disulfide 1-7), the “DTT Min” value in series [3] is 42 min. In series [1] (setting [6]), the 50% inhibitory concentration (IC50) is 87 nM.

Regarding `CC(=O)N[C@@H]1C(=O)N(C)[C@@H](CCCNC(=N)N)C(=O)N[C@@H](CO)C(=O)N[C@@H](CC(=O)O)C(=O)N[C@@H]([C@@H](C)O)C(=O)N[C@@H](CC(C)C)C(=O)N[C@H](C(=O)N[C@@H](Cc2c[nH]c3ccccc23)C(=O)N[C@H](CCC(=O)O)C(=O)N[C@H](CCCCNC(=O)COCC(=O)NCCCC[C@@H](NC(=O)[C@@H](CCC(=O)O)NC(=O)[C@H](Cc2c[nH]c3ccccc23)NC(=O)[C@H]2NC(=O)[C@H](CC(C)C)NC(=O)[C@H]([C@@H](C)O)NC(=O)[C@H](CC(=O)O)NC(=O)[C@H](CO)NC(=O)[C@H](CCCNC(=N)N)N(C)C(=O)[C@@H](NC(C)=O)C(C)(C)SSC2(C)C)C(=O)O)C(=O)O)C(C)(C)SSC1(C)C` [compound 216, (Ac-Pen-N-Me-R-S-D-T-L-Pen-W-e-k-OH)2-DIG] (I: Ac-[Pen][NMeR]SDTL[Pen]W[dE][dK]-OH / II: Ac-[Pen][NMeR]SDTL[Pen]W[dE][dK]-OH; disulfide I:1-I:7, II:1-II:7 (inferred); linker I:10-II:10 via Diglycolyl (inferred)), the IC50 stood at 2.8 nM in series [1] (setting [6]) and 14.5 nM in series [2] (Table 4-B, read-out: Cell Adhesion PBMC IC50).
